Results reported in patent publication US10098879B2 (priority 2015, dated 2018).

Experiments:
Ebola virus (EBOV) = details: human, in vivo
Ebola virus = details: mouse, in vivo, 150 mg/kg; cited from earlier work

## NC(=O)c1nc(F)cnc1O [Favipiravir, 6-fluoro-3-hydroxy-2-pyrazinecarboxamide]
Ebola virus (EBOV)
  Effect on survival, patients with CT<20: no indication that favipiravir monotherapy improved survival
  Mortality (participants died), baseline CT <20: 85%
  Mortality (participants died), baseline CT ≥20: 15%
  Mortality in patients with abnormal baseline creatinine values and BCT<20: 100%
  Mortality in patients with abnormal baseline creatinine values and BCT≥20: 7%
  Mortality rate versus pre-trial figures, patients with CT≥20: lower mortality rate compared to pre-trial figures
Ebola virus (EBOV); po
  Mortality (participants died), overall: 48%
  Tolerance of the drug: well tolerated
Ebola virus
  Biochemical parameters of disease severity: reduced biochemical parameters of disease severity
  Survival: 100%
  Virus clearance: rapid virus clearance
